This is an account of results in patent US20080311036A1, “Imaging of Neural and Organ Injury or Damage” (UNIVERSITY OF FLORIDA RESEARCH FOUNDATION, INC., priority 2005, published 2008).

Data set [1] can be described thus: in vivo half-life after intravenous administration. The procedure:
To enhance the brain residency of the selected “inhibitor-ligands,” a pro-drug strategy that promotes the “trapping” of their precursors in the CNS are evaluated (Prokai et al., 2000). […] The following scheme outlines the method employed to the selected inhibitor-ligands (see FIG. 5).

For the next data set, the system named is calpain. Kind of data set: in situ calpain inhibition in SH-SY5Y cells challenged with maitotoxin, SBDP145 by Western blot. The data set is classed as cell-based. The conditions noted are these: SH-SY5Y neuroblastoma cells, maitotoxin 0.3 nM, read-out: IC50 for blocking SBDP145. The procedure: The synthesized promoiety-conjugates Compound 1 and Compound 2, will be tested for oxidation stability at 37° C. in buffer (pH 7.4), rat plasma and rat-brain homogenate to probe the kinetics of the expected conversion to the pyridinium-ion intermediates. […] Compound 1 for calpain and Compound 2 will be further tested in in situ calpain and caspase inhibition analysis in cell culture. This may be important since both proteases are intracellular, so for the in vivo uses of the inhibitor-ligands, compounds must have the ability to penetrate cells and retain potency while inside cells. We will use neuroblastoma cell line SH-SY5Y, which can be manipulated to produce calpain-activation and necrosis with a neurotoxin maitotoxin (0.3 nM, Calbiochem) or caspase activation and apoptosis with calcium-chelator EGTA (5 mM) as we have shown before (McGinnis, Wang, Gnegy, (1999) J. Neurochem. 72, 1853-1863). Importantly the protease-produced spectrin breakdown products SBDP150 and SBDP145 (with maitotoxin) and SBDP150 and SBDP120 (with EGTA) are readily produced and quantitatively detected by Western blot analysis, which parallel the formation of SBDP's in brain injury in vivo. Prototype calpain inhibitor SJA6017 blocked SBDP145 at IC50 of 0.2 μM, while caspase inhibitor z-D-DCB blocks SBDP120 at IC50 of 5 μM. […]
For orientation: A western blot detects proteins with antibodies after separation by electrophoresis.

For data set [2] the following is noted: known calpain inhibitors; cited from earlier work.

As a reminder, the IC50 is the concentration needed to halve the response being measured. For `CC(C)C[C@@H](C=O)NC(=O)[C@@H](NS(=O)(=O)c1ccc(F)cc1)C(C)C` [SJA-6017], the in vivo half-life entry in data set [1] is recorded as “ca. 11 min”. The IC50 in the data set on calpain was 200 nM.

`CC(=O)N[C@@H](CC(C)C)C(=O)N[C@@H](CC(C)C)C(=O)N[C@H](C=O)CCCNC(=N)N` [leupeptin, N-acetyl-Leu-Leu-argininal]: the “crossing of cell membranes” value in data set [2] was “cross cell membranes only poorly”.
